Measurements published in patent US20040057926A1, “Modulation of the immune response through the manipulation of arginine levels” (LSU Medical Center, priority 2002, published 2004).

B1: CagA: recombinant H. pylori protein CagA (protein, UniProt P55980 1-1186, looked up)
Cytotoxicity-associated …: MTNETIDQTRTPDQTQSQTAFDPQQFINNLQVAFIKVDNVVASFDPDQKPIVDKNDRDNRQAFDGISQLREEYSNKAIKNPTKKNQYFSDFIDKSNDLINKDNLIDVESSTKSFQKFGDQRYQIFTSWVSHQKDPSKINTRSIRNFMENIIQPPIPDDKEKAEFLKSAKQSFAGIIIGNQIRTDQKFMGVFDESLKERQEAEKNGGPTGGDWLDIFLSFIFNKKQSSDVKEAINQEPVPHVQPDIATTTTDIQGLPPEARDLLDERGNFSKFTLGDMEMLDVEGVADIDPNYKFNQLLIHNNALSSVLMGSHNGIEPEKVSLLYAGNGGFGDKHDWNATVGYKDQQGNNVATLINVHMKNGSGLVIAGGEKGINNPSFYLYKEDQLTGSQRALSQEEIRNKVDFMEFLAQNNTKLDNLSEKEKEKFQNEIEDFQKDSKAYLDALGNDRIAFVSKKDTKHSALITEFNNGDLSYTLKDYGKKADKALDREKNVTLQGSLKHDGVMFVDYSNFKYTNASKNPNKGVGATNGVSHLEAGFNKVAVFNLPDLNNLAITSFVRRNLENKLTAKGLSLQEANKLIKDFLSSNKELAGKALNFNKAVAEAKSTGNYDEVKKAQKDLEKSLRKREHLEKEVEKKLESKSGNKNKMEAKAQANSQKDEIFALINKEANRDARAIAYTQNLKGIKRELSDKLEKISKDLKDFSKSFDEFKNGKNKDFSKAEETLKALKGSVKDLGINPEWISKVENLNAALNEFKNGKNKDFSKVTQAKSDLENSVKDVIINQKVTDKVDNLNQAVSVAKAMGDFSRVEQVLADLKNFSKEQLAQQAQKNEDFNTGKNSELYQSVKNSVNKTLVGNGLSGIEATALAKNFSDIKKELNEKFKNFNNNNNGLKNSTEPIYAKVNKKKTGQVASPEEPIYTQVAKKVNAKIDRLNQIASGLGGVGQAAGFPLKRHDKVDDLSKVGLSASPEPIYATIDDLGGPFPLKRHDKVDDLSKVGRSRNQELAQKIDNLNQAVSEAKAGFFGNLEQTIDKLKDSTKKNVMNLYVESAKKVPASLSAKLDNYAINSHTRINSNIQNGAINEKATGMLTQKNPEWLKLVNDKIVAHNVGSVSLSEYDKIGFNQKNMKDYSDSFKFSTKLNNAVKDIKSGFTHFLANAFSTGYYCLARENAEHGIKNVNTKGGFQKS

System: Jurkat cells
Assay: Co-culture in transwells of stimulated PM and Jurkat cells, CD3ζ expression
Assay type: cell-based
Conditions: NOHA 100 μM, Nor-NOHA 50 μM, L-Arg 2 mM, L-NIL 5 μg/ml, catalase 200 U/ml, L-NMMA, L-NNA, L-NAME 1 mM
Experimental: PM were cultured in 6 well plates in RPMI containing 150 μM L-Arg and stimulated with murine rIL-4 (50 U/ml) and murine rIL-13 (50 ng/ml), or murine rIFN-γ (100 U/ml) for 24 hours. Then 1×10^6 normal T-cells stimulated with anti-CD3 plus anti-CD28 or 1×10^6 Jurkat cells, were cultured in the top chamber of a transwell system having 0.4 μm pores (Falcon, Franklin lakes, N.J.). CD3ζ expression was measured in Jurkat cells or T lymphocytes at different time points. PM were detached using trypsin/EDTA and the expression of protein and RNA for CAT-2B, ASE I, ASE II and iNOS was tested by western blot and northern blot respectively. Cytoplasmic extracts from PM were used to test ASE activity. Supernatants from stimulated PM were used to measure NO production using the Griess reagent method (Molecular Probes, Eugene, Oreg.). In addition, the extra-cellular concentration of L-Arg was tested in supernatants by HPLC (Dr. Gu Yao Wu laboratory, University of Texas) as described previously. O'Quinn, P. R., D. A. Knabe, and G. Wu. 2002. Arginine catabolism in lactating porcine mammary tissue. J Anim Sci. 80:467-474.
Flow cytometry analysis was performed as previously described. Taheri, F., J. B. Ochoa, Z. Faghiri, K. Culotta, H. J. Park, M. S. Lan, A. H. Zea, and A. C. Ochoa. 2001. L-Arginine regulates the expression of the T-cell receptor zeta chain (CD3zeta) in Jurkat cells. Clin Cancer Res 7:958s-965s. Briefly, 5×10^5 Jurkat cells or T lymphocytes were washed once with Dulbecco phosphate-buffered saline 1× (D-PBS) and resuspended in 200 μL of D-PBS containing 1 μg of anti-CD3ε or isotype control. Cells were incubated for 15 min at 4° C., washed with D-PBS and resuspended in 200 μl D-PBS containing 500 μg/ml of digitonin plus 1 μg of anti-CD3ζ or 1 μg of isotypic control. Cells were incubated for 8 minutes after which they were washed and resuspended in 400 μl of D-PBS. Fluorescence acquisition and analysis were done using a Coulter-EPICS XL flow cytometer (Beckman-Coulter) with a 488 nm argon laser. The data were expressed as mean channel fluorescence intensity (MFI).
For Catalase, the “CD3ζ in Jurkat cells co-cultured with PM stimulated with IL-4+IL-13” value (“CD3ζ in Jurkat cells co-cultured” for short) was “did not prevent the decrease of CD3ζ”.
For `CNC(=N)NCCC[C@H](N)C(=O)O` [NMMA, L-mono-methyl-L-Arg], the “CD3ζ in Jurkat cells co-cultured” value was “partially prevented the CD3ζ down-regulation”.
With `COC(=O)[C@@H](N)CCCNC(=N)N[N+](=O)[O-]` [L-NAME, N-NO2-L-Arg-OMe] the “CD3ζ in Jurkat cells co-cultured” value was “did not prevent CD3ζ decrease”.
For `CC(=N)NCCCC[C@H](N)C(=O)O` [L-NIL], the “CD3ζ in Jurkat cells co-cultured” value was “did not prevent CD3ζ down-regulation”.
With `N=C(NCCC[C@H](N)C(=O)O)N[N+](=O)[O-]` [L-NNA, N-NO2-L-Arg] the “CD3ζ in Jurkat cells co-cultured” value was “did not prevent CD3ζ decrease”.

Same assay, conditions: data not shown
With `NC(N)=O` [urea] the “induction of CD3ζ down-regulation by excess of the substance” value was “did not induce CD3ζ down-regulation”.
For `NCCC[C@H](N)C(=O)O` [L-ornithine], the “induction of CD3ζ down-regulation by excess of the substance” value was “did not induce CD3ζ down-regulation”.

System: T-cells
Assay: Lysosome and proteasome inhibition, CD3ζ expression in T-cells
Assay type: cell-based, human
Conditions: lactacystin 2.5 μM, bafylomycin A1 1 μM
Experimental: To inhibit lysosome function 2×10^6 T-cells cultured in the presence or absence of L-arginine, were treated with 1 μM bafylomycin A1 (Calbiochem, San Diego, Calif.) or 1 μM folimycin (Calbiochem) during the course of the experiments begining at time 0 (start of the cultures), 24, 48 and 72 hours after stimulation. To inhibit proteasome activity 2.5 μM lactacystin (Calbiochem) was added to the cultures at the same time points. DMSO was used as a control vehicle in all the cases. The CD3ζ expression was tested by flow cytometry 24 hours after the addition of the inhibitors.
For `CC(=O)N[C@@H](CSC(=O)[C@]1([C@@H](O)C(C)C)NC(=O)[C@H](C)[C@@H]1O)C(=O)O` [lactacystin], the “decrease of CD3ζ upon stimulation with proteosome or lysosome inhibitor” value was “failed to prevent the decrease of CD3ζ upon stimulation”.
With `CO/C1=C\C(C)=C\[C@@H](C)[C@@H](O)[C@@H](C)C/C(C)=C/C=C/[C@H](OC)[C@@H]([C@@H](C)[C@@H](O)[C@H](C)[C@@]2(O)C[C@@H](O)[C@H](C)[C@@H](C(C)C)O2)OC1=O` [bafilomicyn, bafylomycin A1] the “decrease of CD3ζ upon stimulation with proteosome or lysosome inhibitor” value was “failed to prevent the decrease of CD3ζ upon stimulation”.

System: not given
Assay: not given
Assay type: cell-based
Conditions: within 24 h, trypan blue exclusion
Experimental: To further explore possible mechanisms leading to a decreased T-cell response induced by the H. pylori sonicate, various aspects of T-cell signal transduction were studied. […] The expression of the CD3ζ chain, the main signaling element of the T-cell antigen receptor, were then tested. […] Harris, P. R., et al. J. Infect. Dis. 178, pp. 1516-1520 (1998); Zhang, Q. B., et al. Gut 38, pp. 841-845 (1996). Therefore some of these H. pylori proteins were tested to determine whether they could reduce CD3ζ expression. The recombinant proteins CagA, VacA, urease A (UreA), urease B (UreB) were titrated up to 10 μg/ml, a concentration where they caused cell death within 24 h as determined by trypan blue exclusion. […] Harris, P. R., et al. J. Infect. Dis. 178, pp. 1516-1520 (1998); Pai, R., et al. Biochem. Biophys. Res. Commun. 262, pp. 245-250 (1999); Rudnicka, W., et al. J. Physiol Pharmacol. 49, pp. 111-119 (1998); Tanahashi, T., et al. Infect. Immun. 68, pp. 664-671 (2000).
With UreB: recombinant H. pylori urease B the “concentration where they caused cell death” value was 10000 ng/mL.
With `NC(N)=O` [urea] the “concentration where they caused cell death” value was 10000 ng/mL.
For B1, the “concentration where they caused cell death” value was 10000 ng/mL.
